Experimental data reported in US11865132B2, “Nucleoside derivatives and methods of use thereof” (Ascletis BioScience Co., Ltd., priority 2021, dated 2024).

Experiment: Permeability of compounds in Caco-2 assay (bi-directional transport)
Type: in vitro ADME
Conditions: human, pH 7.4; for Papp A→B at 2 h, 2 μM / Papp B→A at 2 h, 2 μM: Caco-2 monolayer, pH 7.40; for Papp A→B at 2 h, 2 μM: A to B; for Papp B→A at 2 h, 2 μM: B to A
Procedure: Caco-2 cells purchased from ATCC were seeded onto […] (PET) in 96-well Corning Insert plates at 1×10^5 cells/cm2, and refreshed medium every 4˜5 days until to the 21st to 28th day for confluent cell monolayer formation. The transport buffer in the study was HBSS with 10.0 mM HEPES at pH 7.40±0.05. Test compound was tested at 2.00 μM bi-directionally in duplicate. Digoxin was tested at 10.0 μM bi-directionally in duplicate, while nadolol and metoprolol were tested at 2.00 μM in A to B direction in duplicate. Final DMSO concentration was adjusted to less than 1%. The plate was incubated for 2 hours in CO2 incubator at 37±1° C., with 5% CO2 at saturated humidity without shaking. […] For nadolol and metoprolol, 200 μL supernatant solution was diluted with 600 μL ultra-pure water for LC-MS/MS analysis. For digoxin and test compounds, 200 μL supernatant solution was diluted with 200 μL ultra-pure water for LC-MS/MS analysis Concentrations of test and control compounds in starting solution, donor solution, and receiver solution were quantified by LC-MS/MS methodologies, using peak area ratio of analyte/internal standard. After transport assay, lucifer yellow rejection assay was applied to determine the Caco-2 cell monolayer integrity. The apparent permeability coefficient Papp (cm/s) was calculated using the equation: Papp=(dCr/dt)×Vr/(A×C0) Where dCr/dt is the cumulative concentration of compound in the receiver chamber as a function of time (μM/s); Vr is the solution volume in the receiver chamber (0.075 mL on the apical side, 0.25 mL on the basolateral side); A is the surface area for the transport, i.e. 0.0804 cm2 for the area of the monolayer, CO is the initial concentration in the donor chamber (μM).

Papp A→B at 2 h, 2 μM [×10⁻⁶ cm/s] | Papp B→A at 2 h, 2 μM [×10⁻⁶ cm/s] | Papp at 2 h, 2 μM (Caco-2, binning criteria Low/Moderate/High, read-out: Papp (permeability bin)) [×10⁻⁶ cm/s] | efflux ratio at 2 h, 2 μM (Papp(BA)/Papp(AB), Caco-2) | Structure (SMILES)
< 0.293 | 0.527 | – | – | CC(C)C(=O)OC[C@H]1O[C@@H](n2ccc(NO)nc2=O)[C@H](O)[C@@H]1O [molnupiravir, reference compound]
0.565 | 2.04 | 2 to 20 | 3.61 | CC(C)C(=O)OC[C@H]1O[C@@H](n2ccc(NO)nc2=O)[C@@H]2OC(=O)O[C@@H]21 [Compound 1, ((3aR,4R,6R,6aR)-6-((Z)-4-(hydroxyimino)-2-oxo-3,4-dihydropyrimidin-1(2H)-yl)-2-oxotetrahydrofuro[3,4-d][1,3]dioxol-4-yl)methyl isobutyrate]
